Laboratory results: the supplement of paper PMC10307832

How the values were obtained:
Assay in all cases: relative viability (nuclei count vs DMSO), 5 days (fraction); higher = more cells survive
Venetoclax + Decitabine = compound: CC1(C)CCC(CN2CCN(c3ccc(C(=O)NS(=O)(=O)c4ccc(NCC5CCOCC5)c([N+](=O)[O-])c4)c(Oc4cnc5[nH]ccc5c4)c3)CC2)=C(c2ccc(Cl)cc2)C1 [Venetoclax] + Nc1ncn([C@H]2C[C@H](O)[C@@H](CO)O2)c(=O)n1 [Decitabine] (partner 2 µM)
How it was run: (§1)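 Dosing by pin tool came one day after lung cancer cell lines were seeded in 1536-well plates, using either one drug or a fixed anchor-drug dose plus five library-drug doses (not always all listed) in √10 steps. After 5 days, nuclei were counted on 4× images. Relative viability is treated-well nuclei count divided by vehicle-well nuclei count, and values are medians of duplicate plates.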

Selumetinib + Navitoclax = compound: Cn1cnc2c(F)c(Nc3ccc(Br)cc3Cl)c(C(=O)NOCCO)cc21 [Selumetinib] + CC1(C)CCC(c2ccc(Cl)cc2)=C(CN2CCN(c3ccc(C(=O)NS(=O)(=O)c4ccc(N[C@H](CCN5CCOCC5)CSc5ccccc5)c(S(=O)(=O)C(F)(F)F)c4)cc3)CC2)C1 [Navitoclax] (partner 0.5 µM)
How it was run: as §1

Venetoclax + Trametinib = compound: CC1(C)CCC(CN2CCN(c3ccc(C(=O)NS(=O)(=O)c4ccc(NCC5CCOCC5)c([N+](=O)[O-])c4)c(Oc4cnc5[nH]ccc5c4)c3)CC2)=C(c2ccc(Cl)cc2)C1 [Venetoclax] + CC(=O)Nc1cccc(-n2c(=O)n(C3CC3)c(=O)c3c(Nc4ccc(I)cc4F)n(C)c(=O)c(C)c32)c1 [Trametinib] (partner 0.02 µM)
How it was run: as §1

Venetoclax + Phenformin = compound: CC1(C)CCC(CN2CCN(c3ccc(C(=O)NS(=O)(=O)c4ccc(NCC5CCOCC5)c([N+](=O)[O-])c4)c(Oc4cnc5[nH]ccc5c4)c3)CC2)=C(c2ccc(Cl)cc2)C1 [Venetoclax] + N=C(N)NC(=N)NCCc1ccccc1 [Phenformin] (partner 250 µM)
How it was run: as §1

Cell Line | relative viability (Venetoclax + Decitabine; first compound 0.01 µM) | relative viability (Venetoclax + Decitabine; first compound 0.03162 µM) | relative viability (Venetoclax + Decitabine; first compound 0.1 µM) | relative viability (Venetoclax + Decitabine; first compound 0.3162 µM) | relative viability (Venetoclax + Decitabine; first compound 1 µM) | relative viability (Selumetinib + Navitoclax; first compound 0.02 µM) | relative viability (Selumetinib + Navitoclax; first compound 0.06325 µM) | relative viability (Selumetinib + Navitoclax; first compound 0.2 µM) | relative viability (Selumetinib + Navitoclax; first compound 0.6325 µM) | relative viability (Venetoclax + Trametinib; first compound 0.01 µM) | relative viability (Venetoclax + Trametinib; first compound 0.03162 µM) | relative viability (Venetoclax + Trametinib; first compound 0.1 µM) | relative viability (Venetoclax + Trametinib; first compound 0.3162 µM) | relative viability (Venetoclax + Trametinib; first compound 1 µM) | relative viability (Venetoclax + Phenformin; first compound 0.01 µM) | relative viability (Venetoclax + Phenformin; first compound 0.03162 µM) | relative viability (Venetoclax + Phenformin; first compound 0.1 µM) | relative viability (Venetoclax + Phenformin; first compound 0.3162 µM) | relative viability (Venetoclax + Phenformin; first compound 1 µM)
NCI-H1975 | 0.358 | 0.371 | 0.414 | 0.393 | 0.43 | 1.23 | 1.22 | 1.01 | 0.728 | 0.256 | 0.388 | 0.319 | 0.347 | 0.3 | 0.429 | 0.397 | 0.401 | 0.41 | 0.366
ChaGo-K-1 | 0.465 | 0.503 | 0.488 | 0.545 | 0.519 | 0.878 | 0.956 | 0.911 | 1.23 | 0.769 | 0.951 | 0.882 | 0.939 | 0.815 | 0.539 | 0.489 | 0.429 | 0.49 | 0.453
NCI-H727 | 0.918 | 1.07 | 1.04 | 0.704 | 0.891 | 0.237 | 0.184 | 0.119 | 0.103 | 0.363 | 0.392 | 0.406 | 0.412 | 0.386 | 0.509 | 0.63 | 0.504 | 0.625 | 0.526
COR-L23 | 0.458 | 0.478 | 0.444 | 0.454 | 0.39 | 1.05 | 0.926 | 1.06 | 1.04 | 0.528 | 0.588 | 0.502 | 0.575 | 0.547 | 0.42 | 0.442 | 0.413 | 0.43 | 0.423
COR-L 105 | 0.581 | 0.589 | 0.694 | 0.76 | 0.652 | 0.78 | 0.574 | 0.642 | 0.451 | 0.333 | 0.499 | 0.386 | 0.496 | 0.413 | 0.583 | 0.462 | 0.462 | 0.493 | 0.458
LK-2 | 0.204 | 0.359 | 0.305 | 0.231 | 0.294 | 0.88 | 0.896 | 0.838 | 1.06 | 0.894 | 0.762 | 0.596 | 0.628 | 0.639 | 0.479 | 0.605 | 0.491 | 0.617 | 0.357
201T | 0.774 | 0.834 | 0.792 | 0.82 | 0.825 | 1.17 | 1.14 | 1.17 | 1.15 | 0.675 | 0.699 | 0.713 | 0.682 | 0.696 | 0.451 | 0.433 | 0.456 | 0.466 | 0.411
HCC-78 | 0.689 | 0.744 | 0.786 | 0.652 | 0.58 | 0.77 | 0.758 | 0.69 | 0.738 | 0.599 | 0.826 | 0.597 | 0.722 | 0.911 | 0.782 | 0.776 | 0.699 | 0.671 | 0.606
